Test results taken from patent US20230247992A1, “ARTHROPOD CONTROL COMPOSITION” (Firmenich SA, priority 2020, published 2023).

Legend:
Ixodes ricinus = test: whole plant or invertebrate; assay type: in vivo; conditions: Ixodes ricinus, read-out: mean percentage of ticks affected
Aedes aegypti [1] = test: in vivo Arm-in-cage assay on human volunteers; conditions: for decrease of the percentage of mosquito landing on the arm: 20% applied on arm skin (600 cm^2), three volunteers
Method: The controlling effect, repellence & spatial repellence, according to the present invention is also determined according to an arm in the box method adapted from the WHO Guidelines for efficacy testing of mosquito repellents for human skin (WHO/CDS/NTD/WHOPES/2009.4). […] Further information is provided in the accompanying examples.
The Arm in the box method was adapted from the WHO Guidelines for efficacy testing of mosquito repellents for human skin (WHO/CDS/NTD/WHOPES/2009.4). The readiness of 100 hungry female mosquitoes A. aegypti to probe is assessed by inserting an untreated arm into the cage (40×40×40 cm) for 30 seconds (negative control) three times (once at the beginning, once at the fourth hour and once at the eighth hour), to determine probing activity. Then, the product is applied onto the skin of the forearm of a human volunteer (1 mL per 600 cm^2) and after 5 minutes, this arm is inserted into the cage and exposed for 3 minutes. The assay take place in temperature (27±2° C.) and humidity (80±10%RH) regulated room on three different volunteers.
Arm-in-cage test is a compulsory assay for most biocide registrations to assess the efficacy of a substance. It is a very challenging test as the treated arm of a volunteer is being placed in a space containing a density of […] blood hungry mosquitoes / m^3 of air.

Aedes aegypti [2] = test: in vitro Warm Body assay, substance introduced in the cage air by forced evaporation (spatial repellence); assay type: in vivo
Aedes aegypti [3] = test: in vitro Warm Body assay, substance applied on glass Petri dish on top of the warm body (deterrence and repellence); assay type: in vivo

COc1cc(C=O)ccc1O [4-hydroxy-3-methoxybenzaldehyde]
pest or weed control at 1 µg/cm2, 1 µg/cm2 (Ixodes ricinus): 14% | pest or weed control at 5 µg/cm2, 5 µg/cm2 (Ixodes ricinus): 44% | pest or weed control at 25 µg/cm2, 25 µg/cm2 (Ixodes ricinus): 73% | decrease of the percentage of mosquito landing on the arm (Aedes aegypti [1]; 5 min post-application): 82±5.2% | decrease of the percentage of mosquito landing on the arm (Aedes aegypti [1]; 1 h post-application): 78±2.6% | decrease of the percentage of mosquito landing on the arm (Aedes aegypti [1]; 2 h post-application): 66±8.0% | decrease of the percentage of mosquito landing on the arm (Aedes aegypti [1]; 3 h post-application): 61±6% | decrease of the percentage of mosquito landing on the arm (Aedes aegypti [1]; 4 h post-application): 63±2% | number of mosquitoes landing within 2 minutes on the warm body, air in the cage saturated with stimulus (Aedes aegypti [2]; 0.0017 µg/L air, without substance 54.7±3.2): 17.0 | number of mosquitoes landing within 2 minutes on the warm body, air in the cage saturated with stimulus (Aedes aegypti [2]; 0.017 µg/L air, without substance 54.7±3.2): 9.0 | number of mosquitoes landing within 2 minutes on the warm body, air in the cage saturated with stimulus (Aedes aegypti [2]; 0.17 µg/L air, without substance 54.7±3.2): 1.5 | number of mosquitoes landing within 2 minutes on the warm body, air in the cage saturated with stimulus (Aedes aegypti [2]; 1.7 µg/L air, without substance 54.7±3.2): 3.5 | number of mosquitoes landing within 2 minutes on the warm body, air in the cage saturated with stimulus (Aedes aegypti [2]; 17 µg/L air, without substance 54.7±3.2): 1.0 | number of mosquitoes landing within 2 minutes on the warm body (Aedes aegypti [3]; 0.04% in ethanol, ethanol control 59.3±6.9 landings): 9.0 | number of mosquitoes landing within 2 minutes on the warm body (Aedes aegypti [3]; 1% in ethanol, ethanol control 59.3±6.9 landings): 3.0 | number of mosquitoes landing within 2 minutes on the warm body (Aedes aegypti [3]; […] in ethanol, ethanol control 59.3±6.9 landings): 19.0

CCCCCC1CCCC(=O)O1 (stereo not shown) [6-pentyloxan-2-one]
repellence in the arm-in-cage test (Aedes aegypti [1]; maintained for more than 4h (FIG. 3)): above 75% | number of mosquitoes landing within 2 minutes on the warm body, air in the cage saturated with stimulus (Aedes aegypti [2]; 0.0017 µg/L air, without substance 54.1±4.9): 43.0 | number of mosquitoes landing within 2 minutes on the warm body, air in the cage saturated with stimulus (Aedes aegypti [2]; 0.017 µg/L air, without substance 54.1±4.9): 4.0 | number of mosquitoes landing within 2 minutes on the warm body, air in the cage saturated with stimulus (Aedes aegypti [2]; 0.17 µg/L air, without substance 54.1±4.9): 28.0 | number of mosquitoes landing within 2 minutes on the warm body, air in the cage saturated with stimulus (Aedes aegypti [2]; 1.7 µg/L air, without substance 54.1±4.9): 0.5 | number of mosquitoes landing within 2 minutes on the warm body, air in the cage saturated with stimulus (Aedes aegypti [2]; 17 µg/L air, without substance 54.1±4.9): 0.0 | number of mosquitoes landing within 2 minutes on the warm body (Aedes aegypti [3]; 0.04% in ethanol, ethanol control 67.0±8.8 landings): 7.0 | number of mosquitoes landing within 2 minutes on the warm body (Aedes aegypti [3]; 1% in ethanol, ethanol control 67.0±8.8 landings): 2.0 | number of mosquitoes landing within 2 minutes on the warm body (Aedes aegypti [3]; […] in ethanol, ethanol control 67.0±8.8 landings): 90.0
